The text below walks through data of ChEMBL document CHEMBL1155992, “Bioisosteric replacement of the hydrazide pharmacophore of the cannabinoid-1 receptor antagonist SR141716A. Part I: potent, orally-active 1,4-disubstituted imidazoles” (Bioorg Med Chem Lett, 2009).

The target of data set [1] is Cannabinoid receptor 1 (Rattus norvegicus, UniProt P20272). In words: Displacement of [3H]SR141716A from rat brain CB1 receptor.
For a further data set, the species on record is Homo sapiens. In words: Selectivity index, ratio of Ki for human CB2 receptor to Ki for human CB1 receptor.
Data set [2] deals with Cannabinoid receptor 1 (Homo sapiens, UniProt P21554). Briefly: Antagonist activity at human CB1 receptor transfected in CHO-K1cells by GTPgamma[35S] binding assay. In kind it is functional, cell-based, CHO-K1.
Chain of Cannabinoid receptor 1 (Homo sapiens, UniProt P21554) (P21554 whole entry): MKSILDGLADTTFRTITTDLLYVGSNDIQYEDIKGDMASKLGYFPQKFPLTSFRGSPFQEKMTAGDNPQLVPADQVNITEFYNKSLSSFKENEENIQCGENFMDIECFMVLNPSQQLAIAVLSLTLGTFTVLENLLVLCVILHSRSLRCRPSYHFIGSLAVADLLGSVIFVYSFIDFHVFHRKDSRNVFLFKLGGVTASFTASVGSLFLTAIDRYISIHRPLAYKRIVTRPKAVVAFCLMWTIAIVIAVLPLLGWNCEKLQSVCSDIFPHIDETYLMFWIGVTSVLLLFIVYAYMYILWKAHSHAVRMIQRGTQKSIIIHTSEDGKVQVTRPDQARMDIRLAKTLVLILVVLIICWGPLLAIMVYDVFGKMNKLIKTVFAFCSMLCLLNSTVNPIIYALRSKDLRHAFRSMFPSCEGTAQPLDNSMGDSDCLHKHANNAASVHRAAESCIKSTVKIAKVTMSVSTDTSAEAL
The target in a further data set is T1, Cytochrome P450 1A2 (Homo sapiens, UniProt P05177).
T1 sequence (P05177 whole entry): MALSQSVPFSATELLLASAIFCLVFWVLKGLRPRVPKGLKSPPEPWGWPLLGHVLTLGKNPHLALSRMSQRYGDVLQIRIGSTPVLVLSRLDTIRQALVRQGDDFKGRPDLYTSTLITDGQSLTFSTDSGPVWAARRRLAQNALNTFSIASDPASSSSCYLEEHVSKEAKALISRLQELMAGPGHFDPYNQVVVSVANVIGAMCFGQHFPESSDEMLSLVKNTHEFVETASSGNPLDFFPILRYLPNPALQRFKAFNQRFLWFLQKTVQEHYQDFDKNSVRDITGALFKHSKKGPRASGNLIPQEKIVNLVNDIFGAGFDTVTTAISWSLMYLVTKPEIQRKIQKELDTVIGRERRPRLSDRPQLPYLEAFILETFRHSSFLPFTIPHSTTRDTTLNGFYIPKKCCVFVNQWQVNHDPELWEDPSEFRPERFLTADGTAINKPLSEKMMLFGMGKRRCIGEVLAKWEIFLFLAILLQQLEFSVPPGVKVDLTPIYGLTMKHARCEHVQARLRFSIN
In words: Inhibition of CYP1A2. In kind it is ADME.

In data set [3] the test system is Mus musculus. Briefly: Effect on hypothermic activity in CP-55940-induced ICR mouse assessed as reduction in body temperature at 10 mg/kg, ip measured after 65 mins of CP-55940 challenge by tetrad assay. It is filed as functional. Details: scale not given: the % may be the effect or the level left. The following applies: route intraperitoneal.
The subject of data set [4] is Rattus norvegicus. Briefly: Antiobesity activity in overnight fasted Sprague-Dawley rat assessed as reduction in food intake in at 3 mg/kg, po. On the set-up: scale not given: the % may be the effect or the level left. It is filed as functional.
The nature of data set [5]: Oral bioavailability in rat at 5 mg/kg. In kind it is ADME, organism-based. The conditions noted are these: in vivo.
For data set [6], the system named is Rattus norvegicus. Briefly: Antiobesity activity in overnight fasted Sprague-Dawley rat assessed as reduction in food intake in at 10 mg/kg, po. It is filed as functional. Details: scale not given: the % may be the effect or the level left.
Data set [7] is described as follows: Half life in rat at 2 mg/kg, iv. On the set-up: dose 2 mg/kg, route intravenous. The conditions noted are these: in vivo. It is filed as ADME, organism-based.
A further data set has as its target Cytochrome P450 3A4 (Homo sapiens, UniProt P08684). Briefly: Inhibition of CYP3A4. In kind it is ADME.
The next data set concerns the target Cytochrome P450 2C9 (Homo sapiens, UniProt P11712). In words: Inhibition of CYP2C9. It is filed as ADME.
For data set [8], the system named is Rattus norvegicus. Briefly: Clearance in rat at 2 mg/kg, iv. Details: dose 2 mg/kg, route intravenous. In kind it is ADME, organism-based. The following applies: in vivo.
In the next data set the target is Cytochrome P450 2D6 (Homo sapiens, UniProt P10635). Briefly: Inhibition of CYP2D6. In kind it is ADME.
Chain of Cytochrome P450 2D6 (P10635 whole entry): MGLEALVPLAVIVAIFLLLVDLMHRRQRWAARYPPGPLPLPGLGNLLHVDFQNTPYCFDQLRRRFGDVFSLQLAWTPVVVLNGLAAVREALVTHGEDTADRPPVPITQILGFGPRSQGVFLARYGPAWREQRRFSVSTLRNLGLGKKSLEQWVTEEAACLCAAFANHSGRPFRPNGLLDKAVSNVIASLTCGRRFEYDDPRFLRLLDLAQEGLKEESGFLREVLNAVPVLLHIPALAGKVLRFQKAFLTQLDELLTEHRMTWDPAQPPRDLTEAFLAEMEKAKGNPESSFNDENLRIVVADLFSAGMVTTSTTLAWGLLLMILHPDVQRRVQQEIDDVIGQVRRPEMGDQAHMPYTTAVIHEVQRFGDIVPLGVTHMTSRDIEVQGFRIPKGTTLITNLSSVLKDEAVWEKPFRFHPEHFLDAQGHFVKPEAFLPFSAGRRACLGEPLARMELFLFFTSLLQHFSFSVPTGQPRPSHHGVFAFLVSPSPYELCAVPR
Data set [9] relates to Mus musculus. In words: Analgesic activity in CP-55940-induced ICR mouse assessed as reduction in latency to jump, kick, lick, flick paw at 10 mg/kg, ip by hotplate assay. On the set-up: scale not given: the % may be the effect or the level left. In kind it is functional. The conditions noted are these: route intraperitoneal.
The next data set has as its target Cytochrome P450 2C19 (Homo sapiens, UniProt P33261). Briefly: Inhibition of CYP2C19. In kind it is ADME.
Data set [10] can be described thus: Volume of distribution in rat at 2 mg/kg, iv. The following applies: in vivo. On the set-up: dose 2 mg/kg, route intravenous. In kind it is ADME, organism-based.
The nature of data set [11]: Intrinsic clearance in human liver microsomes. In kind it is ADME, Microsome.

Each structure is given as a SMILES string. Bounds are passed on as bounds.

Chain of Cannabinoid receptor 1 (Rattus norvegicus, UniProt P20272) (P20272 whole entry): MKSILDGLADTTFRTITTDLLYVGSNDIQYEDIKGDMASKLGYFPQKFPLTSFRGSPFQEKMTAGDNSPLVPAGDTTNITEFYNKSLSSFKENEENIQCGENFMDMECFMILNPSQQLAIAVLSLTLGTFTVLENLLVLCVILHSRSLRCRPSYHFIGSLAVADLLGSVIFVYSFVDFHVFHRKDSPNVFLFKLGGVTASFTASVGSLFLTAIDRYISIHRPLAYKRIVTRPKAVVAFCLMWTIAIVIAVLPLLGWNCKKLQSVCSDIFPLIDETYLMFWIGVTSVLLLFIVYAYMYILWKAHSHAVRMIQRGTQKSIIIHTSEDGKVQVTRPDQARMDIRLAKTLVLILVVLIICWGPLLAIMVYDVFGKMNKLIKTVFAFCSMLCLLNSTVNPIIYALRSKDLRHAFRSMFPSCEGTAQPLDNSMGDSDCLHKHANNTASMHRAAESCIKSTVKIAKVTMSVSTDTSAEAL
Chain of Cytochrome P450 2C19 (P33261 whole entry): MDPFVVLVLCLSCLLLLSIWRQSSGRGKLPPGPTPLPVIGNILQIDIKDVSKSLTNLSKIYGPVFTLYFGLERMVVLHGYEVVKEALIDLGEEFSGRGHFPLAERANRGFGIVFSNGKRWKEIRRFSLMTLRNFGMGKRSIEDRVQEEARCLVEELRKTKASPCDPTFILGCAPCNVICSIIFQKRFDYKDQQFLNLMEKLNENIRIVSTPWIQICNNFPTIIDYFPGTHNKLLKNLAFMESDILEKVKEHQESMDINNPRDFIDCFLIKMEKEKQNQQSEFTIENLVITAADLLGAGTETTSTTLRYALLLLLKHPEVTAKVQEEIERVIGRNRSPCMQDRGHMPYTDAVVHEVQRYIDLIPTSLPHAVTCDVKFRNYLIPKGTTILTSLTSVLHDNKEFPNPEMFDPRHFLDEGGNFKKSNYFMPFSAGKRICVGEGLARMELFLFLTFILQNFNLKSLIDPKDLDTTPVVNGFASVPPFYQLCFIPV
Chain of Cytochrome P450 3A4 (P08684 whole entry): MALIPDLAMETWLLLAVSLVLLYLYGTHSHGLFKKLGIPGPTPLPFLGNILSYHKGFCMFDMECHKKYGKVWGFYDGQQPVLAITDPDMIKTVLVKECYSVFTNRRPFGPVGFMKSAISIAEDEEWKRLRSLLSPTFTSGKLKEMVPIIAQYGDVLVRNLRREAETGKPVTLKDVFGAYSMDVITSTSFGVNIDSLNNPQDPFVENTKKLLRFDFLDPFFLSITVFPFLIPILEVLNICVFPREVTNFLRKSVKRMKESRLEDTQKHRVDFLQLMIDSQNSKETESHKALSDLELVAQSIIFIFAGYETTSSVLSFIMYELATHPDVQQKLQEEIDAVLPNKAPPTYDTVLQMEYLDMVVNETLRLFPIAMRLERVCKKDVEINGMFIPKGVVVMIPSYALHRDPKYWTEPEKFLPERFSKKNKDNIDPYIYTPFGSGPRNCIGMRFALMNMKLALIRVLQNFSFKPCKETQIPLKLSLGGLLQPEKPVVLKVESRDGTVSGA
Chain of Cytochrome P450 2C9 (P11712 whole entry): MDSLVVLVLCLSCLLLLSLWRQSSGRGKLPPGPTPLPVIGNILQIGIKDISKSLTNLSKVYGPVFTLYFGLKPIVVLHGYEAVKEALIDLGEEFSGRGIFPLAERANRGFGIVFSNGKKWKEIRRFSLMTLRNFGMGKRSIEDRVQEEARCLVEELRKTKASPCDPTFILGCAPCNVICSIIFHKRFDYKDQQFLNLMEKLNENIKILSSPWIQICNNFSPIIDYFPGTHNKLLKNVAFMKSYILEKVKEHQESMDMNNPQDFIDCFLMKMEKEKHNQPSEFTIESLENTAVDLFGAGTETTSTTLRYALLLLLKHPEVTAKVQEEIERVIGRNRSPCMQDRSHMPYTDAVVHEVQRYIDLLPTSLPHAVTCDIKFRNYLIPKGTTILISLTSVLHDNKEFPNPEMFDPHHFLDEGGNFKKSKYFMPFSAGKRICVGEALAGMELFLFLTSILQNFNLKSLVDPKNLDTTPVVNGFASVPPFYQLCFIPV

Turning to `Cc1c(-c2cn(-c3ccccc3)cn2)nn(-c2ccccc2Cl)c1-c1ccc(Cl)cc1`, the Ki at Cannabinoid receptor 1 [1] is 19 nM; on Cannabinoid receptor 1 [2], 3.8 nM. The Ratio Ki in the data set listed under Homo sapiens is above 100.
The molecule `Cc1c(-c2cn(C(C)(C)C)cn2)nn(-c2ccc(Cl)cc2Cl)c1-c1ccc(Cl)cc1` displayed a Ki at Cannabinoid receptor 1 [1] of 14 nM. Also, in the data set filed under Homo sapiens, the Ratio Ki was above 100.
As to `Cc1c(-c2cn(C3CCC3)cn2)nn(-c2ccc(Cl)cc2Cl)c1-c1ccc(Cl)cc1`, the Ki at Cannabinoid receptor 1 [1] amounted to 10 nM; at Cannabinoid receptor 1 [2] it was 5 nM. In addition, in the data set filed under Homo sapiens, the Ratio Ki is above 100.
Take `Cc1c(-c2ncn(C(C)C)c2CO)nn(-c2ccc(Cl)cc2Cl)c1-c1ccc(Cl)cc1`: affinity at Cannabinoid receptor 1 [1] was put at a Ki of 19 nM. For the same molecule, the Ratio Ki in the data set listed under Homo sapiens is above 100.
On Cannabinoid receptor 1 [1], `CCn1cnc(-c2nn(-c3ccc(Cl)cc3Cl)c(-c3ccc(Cl)cc3)c2C)c1` displayed a Ki of 20 nM. The Ratio Ki in the data set filed under Homo sapiens is above 100.
Regarding `Cc1c(-c2cn(C3CCCCC3)cn2)nn(-c2ccc(Cl)cc2Cl)c1-c1ccc(Cl)cc1`, the inhibition constant Ki came to 8.6 nM on Cannabinoid receptor 1 [1] and 4.7 nM at Cannabinoid receptor 1 [2]. Moreover, in the data set listed under Homo sapiens, the Ratio Ki was above 100.
Taken in the same sequence, the figures for `Cc1c(-c2cn(C(C)(C)c3ccccc3)cn2)nn(-c2ccccc2Cl)c1-c1ccc(Cl)cc1` were 1.1 nM, 0.1 nM and above 100.
Taken in the same sequence, the figures for `Cc1c(-c2ncn(C(C)C)c2C)nn(-c2ccc(Cl)cc2Cl)c1-c1ccc(Cl)cc1` were 5.7 nM, 9 nM and above 100.
For the molecule `Cc1c(-c2cn(C(C)C)cn2)nn(-c2ccccc2Cl)c1-c1ccc(Cl)cc1`, the IC50 against Cytochrome P450 1A2, against Cytochrome P450 3A4, against Cytochrome P450 2C9, against Cytochrome P450 2D6 and at Cytochrome P450 2C19 was above 10000 nM in each case. Also, the figures for the Ki at Cannabinoid receptor 1 [1] and on Cannabinoid receptor 1 [2] were 5.3 nM and 7.6 nM, respectively. The Activity is on record as 33% in the data set on Mus musculus [3], -31% with Rattus norvegicus [4], 44% in the data set on Rattus norvegicus [6] and 56% in the data set with Mus musculus [9]. In [5], the bioavailability came out at 42%. In data set [7], this molecule gave a half-life of 1.5 h. Moreover, the Ratio Ki in the data set listed under Homo sapiens was above 100. This molecule also showed a clearance in the data set on Rattus norvegicus [8] of 21 mL/min/kg. In data set [10], this molecule gave a volume of distribution (Vd) of 2.5 L/kg.
On to `Cc1c(-c2cn(C3CC3)cn2)nn(-c2ccccc2Cl)c1-c1ccc(Cl)cc1`, for which the inhibition constant (Ki) at Cannabinoid receptor 1 [1] turned out to be 7.4 nM; at Cannabinoid receptor 1 [2], 7.9 nM. Also, in the data set filed under Homo sapiens, the Ratio Ki is above 100.
For the molecule `CCc1c(-c2nn(-c3ccc(Cl)cc3Cl)c(-c3ccc(Cl)cc3)c2C)ncn1C(C)C`, at Cannabinoid receptor 1 [1], affinity was put at a Ki of 38 nM. The Ratio Ki in the data set listed under Homo sapiens was above 100.
As to `Cc1c(-c2cnc(C(C)C)[nH]2)nn(-c2ccc(Cl)cc2Cl)c1-c1ccc(Cl)cc1`, the Ki came to 7.2 nM on Cannabinoid receptor 1 [1] and 9.5 nM on Cannabinoid receptor 1 [2]. The CLint scaled in [11] was determined as 42.5 mL/min/kg. Further, the Ratio Ki in the data set listed under Homo sapiens was above 100.
Molecule `Cc1c(-c2nc[nH]c2C(C)C)nn(-c2ccccc2Cl)c1-c1ccc(Cl)cc1` gave an inhibition constant (Ki) at Cannabinoid receptor 1 [1] of 31 nM. For the same molecule, the Ratio Ki in the data set listed under Homo sapiens is above 100.
Taken in the same sequence, the figures for `Cc1c(-c2cn(Cc3ccccc3)cn2)nn(-c2ccc(Cl)cc2Cl)c1-c1ccc(Cl)cc1` were 14 nM and above 100.
Turning to `Cc1c(-c2ncc(C(C)C)[nH]2)nn(-c2ccc(Cl)cc2Cl)c1-c1ccc(Cl)cc1`, the Ki was 9.5 nM at Cannabinoid receptor 1 [1] and 5.2 nM at Cannabinoid receptor 1 [2]. This molecule gave a CLint scaled in [11] of 42.5 mL/min/kg. For the same molecule, the Ratio Ki in the data set listed under Homo sapiens was above 100.
Take `Cc1c(-c2cn(C(C)(C)c3ccccc3)cn2)nn(-c2ccc(Cl)cc2Cl)c1-c1ccc(Cl)cc1`: the Ki at Cannabinoid receptor 1 [1] came out at 1.8 nM; on Cannabinoid receptor 1 [2], 0.1 nM. Besides, in the data set filed under Homo sapiens, the Ratio Ki was above 100.
As to `Cc1c(-c2cn(C(C)C)cn2)nn(-c2ccc(Cl)cc2Cl)c1-c1ccc(Cl)cc1`, the Ki at Cannabinoid receptor 1 [1] came to 4.9 nM; at Cannabinoid receptor 1 [2] it was 9 nM. The molecule also registered an intrinsic metabolic clearance (CLint scaled) in [11] of 14 mL/min/kg. For the same molecule, the Ratio Ki in the data set listed under Homo sapiens is above 100.
`Cc1c(-c2cn(C3CCOCC3)cn2)nn(-c2ccc(Cl)cc2Cl)c1-c1ccc(Cl)cc1` displayed a Ki on Cannabinoid receptor 1 [1] of 25 nM. The molecule also gave a CLint scaled in [11] below 7 mL/min/kg. The Ratio Ki in the data set filed under Homo sapiens was above 100.
